# Assay results published in PMC4323000 (Oncotarget, 2015).
# Entries after “also recorded” stand apart in the source; their conditions may differ. Where two headings read alike, the source gives them in different places.
# Assays:
# [1] = Pharmacokinetic study of MBL-II-141, CPT-11 and SN-38 (blood, liver, brain; LC-MS/MS); details: for Mean of differences in Brain levels, compound alone versus CPT-11 + MBL-II-141 / Mean of differences in Blood levels, compound alone versus CPT-11 + MBL-II-141 / Mean of differences in Liver levels, compound alone versus CPT-11 + MBL-II-141: paired t-test over time; for Mean of differences in Brain levels, compound alone versus CPT-11 + MBL-II-141: P (two tailed): CPT-11 0.0416, MBL-II-141 0.1059; for Mean of differences in Blood levels, compound alone versus CPT-11 + MBL-II-141: P (two tailed): CPT-11 0.3616, SN-38 0.0299, MBL-II-141 0.1555; for Mean of differences in Liver levels, compound alone versus CPT-11 + MBL-II-141: P (two tailed): CPT-11 0.6878, SN-38 0.1727, MBL-II-141 0.1046
# Experimental: In order to achieve possible cumulative effects, reiterated administrations (two or three) were carried out with a 4 h time interval between administrations. Blood samples were collected at either 1 h or 4 h after the last injection.
# Total blood samples were collected using dried heparinized syringes, avoiding modification of samples. Blood and plasma were stored at −80°C. […] Tissues were crushed using a dried cold system.
# Both assays were performed on a C18 column HypersilGold, (ThermoElectron), 3.0 μm, (100 mm × 2.1 mm i.d.). The mass spectrometry analysis was performed in positive ion mode with electrospray source. […] A volume of 50 μL of whole blood or tissue solution was introduced into a conic centrifuge and 50 μL of solution of the internal standard and 300 μL of cold acetonitrile were added. The sample was mixed and centrifuged for 10 min at 13000 g at 5°C. […] The residues were resuspended in 100 μL of mobile phase and 10 μL were injected into the HPLC device. […] When the concentration was over the upper standard concentration, a dilution of the sample was performed using blank whole blood or appropriate tissues. Peak area ratios of compound to the respective internal standard measured at each nominal concentration were used to construct weighted (1/concentration) least-square linear regression curves. […] Results in tissues were normalized to cellular protein content. Results in tissues were normalized to cellular protein content (C1600 Abott technology).
# [2] = test system: HEK-pcDNA3.1 xenografts; assay: Chemosensitization study, just-established ABCG2-negative tumors
# Experimental: (§1) 4.10^6 HEK-pcDNA3.1 or HEK-ABCG2 cells were sub-cutaneously injected into one flank of each SCID mouse, in solution with 50% matrigel. After the apparition of most tumors, mice were randomly distributed into 4 groups of 20 animals (10 ABCG2 negative and 10 ABCG2-positive tumors). […] Two independent injections were carried out per mouse.
# (§2) Treatments were intraperitoneally administered three times a week until mice sacrifice. […] Finally, mice were sacrificed when the tumor diameter reached 17 mm.
# (§3) Growth models. Tumor growth curves were modeled with GraphPad© Software. Gaussian distribution models were obtained according to the equation Y = Amplitude*exp (−0.5*((X-Mean)/SD)^2). The amplitude was the height of the center of the distribution in Y units. Mean was the X value at the center of the distribution. SD was a measure of the width of the distribution, in the same units as X. Another model was applied for sum of two Gaussian distributions with Y = one + two (One = Amplitude 1*exp(−0.5*((X-Mean1)/SD1)^2) and Two = Amplitude 2*exp(−0.5*((X-Mean2)/SD2)^2)). Amplitudes were the heights of the center of the distribution in Y units. Means were the X values at the center of the two distributions. SDs were measures of the widths of the distributions, in the same units as X.
# (§4) Paired t-test. The statistical test used was the paired t-test. It was applied for all data of growth tumor experiments and pharmacokinetics data.
# [3] = test system: ABCG2; details: cited from earlier work
# [4] = test system: ABCG2; details: cited from earlier work; remark: listed apart in the source
# [5] = test system: ABCG2-overexpressing tumors; details: ref per compound in Table 2; cited from earlier work
# [6] = cited from earlier work
# [7] = cited from earlier work; remark: listed apart in the source
# [8] = test system: HEK293 cells; details: at 100 μM; cited from earlier work
# [9] = test system: ABCC1; details: mitoxantrone or calcein as substrates; cited from earlier work
# [10] = test system: SCID mice; assay: MBL-II-141 tolerance assay; assay type: in vivo
# [11] = test system: HEK-ABCG2 xenografts; assay: Chemosensitization of just-established ABCG2-positive tumors
# Experimental: as §1, §2, §3, §4
# [12] = test system: HEK293-pcDNA3.1 cells; details: at 100 μM; cited from earlier work
# [13] = Solubility for experimental formulation; assay type: physicochemical
# Experimental: The experimental formulation of MBL-II-141 was determined according to its solubility properties.
# [14] = MBL-II-141 oral absorption study (force-feeding versus IP); assay type: in vivo, mouse
# Experimental: The availability of MBL-II-141 was evaluated by force-feeding (n = 4), and compared to intraperitoneal injection (n = 4). CD1 mice were treated with 10 mg/kg of MBL-II-141. After 4 h of treatment, total blood was collected from animals treated with heparin. Samples were stored at −80°C until quantification.
# Assay accuracy was in the range of 91–108%. […] Results in tissues were normalized to cellular protein content.
# [15] = test system: HEK293-ABCG2 cells; details: at 100 μM; cited from earlier work
# [16] = test system: HEK293 ABCG2 xenografts; assay: Chemosensitization of well-established (8 mm) ABCG2-positive tumors; details: for slope of tumor growth: solvents 61 ± 3
# Description: 1.10^6 HEK ABCG2 cells were sub-cutaneously injected into one flank of each SCID mouse, in solution with 30% matrigel. […] Each group contained 10 mice. The same protocol of treatment and follow-up were applied.
# Tumor growth curves were modeled with GraphPad© Software. Gaussian distribution models were obtained according to the equation Y = Amplitude*exp (−0.5*((X-Mean)/SD)^2). The amplitude was the height of the center of the distribution in Y units. Mean was the X value at the center of the distribution. SD was a measure of the width of the distribution, in the same units as X. Another model was applied for sum of two Gaussian distributions with Y = one + two (One = Amplitude 1*exp(−0.5*((X-Mean1)/SD1)^2) and Two = Amplitude 2*exp(−0.5*((X-Mean2)/SD2)^2)). Amplitudes were the heights of the center of the distribution in Y units. Means were the X values at the center of the two distributions. SDs were measures of the widths of the distributions, in the same units as X.
# The statistical test used was the paired t-test. It was applied for all data of growth tumor experiments and pharmacokinetics data.
# [17] = set-up: method as in PMID 23150210; details: P.O.; ref [25]; cited from earlier work
# [18] = CPT-11 20 mg/kg + MBL-II-141 10 mg/kg IP
# [19] = read-out: In vitro Inhibition (IC50), substrate Mitoxantrone, ref [13],[21],[35],[45]–[48] (GF120918), [7] (Triclabendazole)
# [20] = read-out: In vitro Inhibition (IC50), substrate Hoechst 3342, ref [6],[24],[49] (Ko143), [40] (YHO-13177)
# [21] = I.P., ref per compound in Table 2
# [22] = oral, ref per compound in Table 2
# [23] = MBL-II-141 10 mg/kg IP, SCID mice
# [24] = MBL-II-141 alone 10 mg/kg + PBS
# [25] = combination MBL-II-141 10 mg/kg + CPT-11 20 mg/kg
compound,measurement,setting,value
"CCc1c2c(nc3ccc(OC(=O)N4CCC(N5CCCCC5)CC4)cc13)-c1cc3c(c(=O)n1C2)COC(=O)[C@]3(O)CC [CPT-11, irinotecan]",increase of CPT-11 brain levels in the presence of MBL-II-141,[1]; [18],approximately 2 fold
same,fraction lost from the blood at 4 h,[1]; CPT-11 20 mg/kg IP,90%
same,"Mean of differences in Brain levels, compound alone versus CPT-11 + MBL-II-141",[1],-2.085
same,"Mean of differences in Blood levels, compound alone versus CPT-11 + MBL-II-141",[1],-220.0
same,"Mean of differences in Liver levels, compound alone versus CPT-11 + MBL-II-141",[1],-28.86
same,effect on growth of ABCG2-negative cells (tumors),[2]; CPT-11 alone 20 mg/kg,completely blocked
same,survival of mice bearing ABCG2-negative tumors,[2]; CPT-11 alone 20 mg/kg,100%
COc1cc2c(cc1OC)CN(CCc1ccc(NC(=O)c3cccc4c(=O)c5cccc(OC)c5[nH]c34)cc1)CC2 [GF120918],IC50,[3]; [19],310 nM
same,In vitro ABCG2 Specificity,[4]; ref per compound in Table 2,No
same,In vivo Impact on Tumor growth,[5],Yes
COc1ccc2c3c([nH]c2c1)[C@H](CC(C)C)N1C(=O)[C@H](CCC(=O)OC(C)(C)C)NC(=O)[C@@H]1C3 [Ko143],IC50,[3]; [20],[…]
same,"In vivo Toxicity, Acute",[6]; [21],> 10 mg/kg I.P.
same,"In vivo Toxicity, Acute",[6]; [22],> 50 mg/kg oral
same,In vitro ABCG2 Specificity,[4]; ref per compound in Table 2,Yes
same,increase of topotecan plasma levels (oral availability),[7]; ABCB1(−/−) mice,4 to 6 fold
same,In vivo Impact on Pharmacokinetics,"[7]; of Topotecan, ref [13],[21],[35],[45]–[48] (GF120918), [6],[24],[49] (Ko143)",Topotecan: Yes
"COc1ccc2[nH]cc(CCNC(=O)c3cc(=O)c4c(OCc5ccc(Br)cc5)cccc4o3)c2c1 [MBL-II-141, 5-(4-bromobenzyloxy)-2-(2-(5-methoxyindolyl)ethyl-1-carbonyl)-4H-chromen-4-one]",cell death of HEK293 cells,[8],less than 25%
same,type of ABCG2 inhibition towards mitoxantrone,[3],non-competitive
same,IC50,"[3]; read-out: IC50, inhibition of ABCG2 (mitoxantrone efflux), substrate mitoxantrone",110 nM
same,effect on ABCC1-mediated transport,[9],without any effect
same,acute toxicity in pilot study,[10]; 10 mg/kg per mouse,no acute toxicity
same,finding in the peritoneal cavity,[10]; 50 mg/kg 3 times a week for 1 month,slight deposit
same,"macroscopic analysis of organs (brain, heart, lungs, kidneys, liver and spleen)","[10]; 10, 30 or 50 mg/kg with CPT-11 20 mg/kg",no apparent lesions
same,"In vivo Toxicity, Acute","[10]; I.P., mice",> 50 mg/kg I.P.
same,"behavior (physical activity, appearance)","[10]; IP 10, 30 or 50 mg/kg in combination with CPT-11 20 mg/kg",did not show any modification in behavior
same,tolerance,"[10]; at 50 mg/kg, preliminary data",well tolerated
same,complete blood count proportion,"[10]; regardless of the administered dose of MBL-II-141 (10, 30, 50 mg/kg)",unchanged
same,safety on reiterated administrations,[10]; reiterated administrations,without any associated animal death or loss of weight
same,blood level after the third injection versus one or two injection(s),"[1]; 10 mg/kg IP, injections separated by 4 h, blood 1 h or 4 h after last injection",slight increase
same,"Brain/Plasma ratio, fold-change induced by the combination treatment",[1]; 30 min,1.1 fold-change
same,"Liver/Plasma ratio, fold-change induced by the combination treatment",[1]; 30 min,2.5 fold-change
same,"Brain/Plasma ratio, fold-change induced by the combination treatment",[1]; 60 min,0.3 fold-change
same,"Liver/Plasma ratio, fold-change induced by the combination treatment",[1]; 60 min,0.8 fold-change
same,"Brain/Plasma ratio, fold-change induced by the combination treatment",[1]; 120 min,0.4 fold-change
same,"Liver/Plasma ratio, fold-change induced by the combination treatment",[1]; 120 min,1.1 fold-change
same,"Brain/Plasma ratio, fold-change induced by the combination treatment",[1]; 240 min,3.0 fold-change
same,"Liver/Plasma ratio, fold-change induced by the combination treatment",[1]; 240 min,3.0 fold-change
same,level in total blood at 6 h,[1]; [23],below the detection limit
same,time of highest level in total blood,[1]; [23],0.5 h
same,distribution into the brain,"[1]; MBL-II-141 10 mg/kg IP, SCID mice, 10 mg/kg","low, but still detectable"
same,In vivo Impact on Pharmacokinetics,"[1]; of CPT-11, SCID mice",CPT-11: Yes
same,"Mean of differences in Brain levels, compound alone versus CPT-11 + MBL-II-141",[1],38.53
same,"Mean of differences in Blood levels, compound alone versus CPT-11 + MBL-II-141",[1],122.0
same,"Mean of differences in Liver levels, compound alone versus CPT-11 + MBL-II-141",[1],-39.78
same,"Mean of differences between tumor growth curves, vehicles versus MBL-II-141 alone","[11]; HEK-ABCG2, paired t-test P (two tailed) 0.015, 95% CI 16.93 to 138.1",77.51
same,ABCG2-positive tumors whose growth was completely blocked,"[11]; MBL-II-141 10 mg/kg + CPT-11 20 mg/kg IP three times a week, freshly implanted tumors, SCID mice",90%
same,survival rate of mice bearing ABCG2-positive tumors,"[11]; MBL-II-141 10 mg/kg + CPT-11 20 mg/kg, even 40 days after end of treatment",90%
same,inhibitory effect on growth of ABCG2-positive tumors,[11]; [24],not observed
same,In vivo Impact on Tumor growth,"[11]; with CPT-11, ABCG2-positive xenografts",Yes
same,cell survival,[12],75%
same,maximal solubility in DMSO,[13],250 mg/mL
same,In vitro ABCG2 Specificity,[4]; MBL-II-141,Yes
same,"Mean of differences between tumor growth curves, vehicles versus MBL-II-141 alone","[2]; HEK-pcDNA3.1, paired t-test P (two tailed) 0.0006, 95% CI 171.0 to 512.9",342
same,effect on growth of ABCG2-negative tumors,[2]; [24],slight inhibitory effect
same,blood level at 4 h under force-feeding in comparison to IP route (lower),"[14]; 10 mg/kg, difference not significant",approximately 2 fold
same,"In vivo Toxicity, Acute","[14]; oral (force-feeding), mice",> 10 mg/kg oral
same,cell survival,[15],60%
same,mice survival,[16]; [25],markedly increased
same,time at which tumors reached maximal size versus CPT-11 alone,[16]; [25],about two weeks later
same,slope of tumor growth,[16]; [25],41 ± 1 mm^3/day
same,"Mean of differences between tumor growth curves, Solvents versus MBL-II-141","[16]; paired t-test P (two tailed) < 0.0001, 95% CI 54.71 to 135.0",94.84
same,"Mean of differences between tumor growth curves, CPT-11 versus MBL-II-141 + CPT-11","[16]; paired t-test P (two tailed) < 0.0001, 95% CI 162.2 to 329.4",245.8
same,"Mean of differences between tumor growth curves, Solvents versus MBL-II-141 + CPT-11","[16]; paired t-test P (two tailed) < 0.0001, 95% CI 177.3 to 460.0",318.6
same,"Mean of differences between tumor growth curves, MBL-II-141 versus MBL-II-141 + CPT-11","[16]; paired t-test P (two tailed) < 0.0001, 95% CI 240.1 to 562.7",401.4
same,slope of tumor growth,[16]; single agent (MBL-II-141 10 mg/kg or CPT-11 20 mg/kg) three times a week,68 ± 3 mm^3/day
CCc1c2c(nc3ccc(O)cc13)-c1cc3c(c(=O)n1C2)COC(=O)[C@]3(O)CC [SN-38],"Liver/Plasma ratio, fold-change induced by the combination treatment",[1]; 30 min,0.9 fold-change
same,"Liver/Plasma ratio, fold-change induced by the combination treatment",[1]; 60 min,0.6 fold-change
same,"Liver/Plasma ratio, fold-change induced by the combination treatment",[1]; 120 min,1.1 fold-change
same,"Liver/Plasma ratio, fold-change induced by the combination treatment",[1]; 240 min,1.0 fold-change
same,"Liver/Plasma ratio, fold-change induced by the combination treatment",[1]; 480 min,1.0 fold-change
same,change of SN-38 blood levels in the presence of MBL-II-141,[1]; [18],increased; also recorded: strongly increased
same,difference between CPT-11 and SN-38 levels (SN-38 lower),[1]; SCID mice,19 fold
same,time until which detected in blood,[1]; SN-38 after CPT-11 20 mg/kg IP,6 h
same,SN-38 levels in the brain,"[1]; after CPT-11 20 mg/kg IP, with or without MBL-II-141",below the limits of quantification; also recorded: under the limit of detection
same,"Mean of differences in Blood levels, compound alone versus CPT-11 + MBL-II-141",[1],-109.6
same,"Mean of differences in Liver levels, compound alone versus CPT-11 + MBL-II-141",[1],-12.65
same,SN-38 plasma levels lower than CPT-11,"[7]; ICR mice, 1 h after the injection",27 fold
CNC(=O)c1cc(Oc2ccc(NC(=O)Nc3ccc(Cl)c(C(F)(F)F)c3)cc2)ccn1 [Sorafenib],"In vivo Toxicity, Acute",[6]; [22],> 25 mg/kg oral
same,In vitro ABCG2 Specificity,[4]; ref per compound in Table 2,No
same,In vivo Impact on Tumor growth,[5],Yes
same,"In vivo Toxicity, Chronic",[17],> 25 mg/kg P.O.
CSc1nc2cc(Cl)c(Oc3cccc(Cl)c3Cl)cc2[nH]1 [Triclabendazole],IC50,[3]; [19],~10000 nM
same,"In vivo Toxicity, Acute",[6]; [21],> 100 mg/kg I.P.
same,In vivo Impact on Pharmacokinetics,"[7]; of Nitrofurantoin, ref [7]",Nitrofurantoin: Yes
COc1ccc(/C(C#N)=C/c2ccc(N3CCC(O)CC3)s2)cc1OC [YHO-13177],IC50,[3]; [20],~300 nM
same,"In vivo Toxicity, Acute","[6]; I.V., ref [13],[21],[35],[45]–[48] (GF120918), [40] (YHO-13177)",> 30 mg/kg I.V.
same,"In vivo Toxicity, Acute",[6]; [22],> 200 mg/kg oral
same,In vitro ABCG2 Specificity,[4]; ref per compound in Table 2,Yes
same,In vivo Impact on Tumor growth,[5],Yes
